# Measurements as given in US10752900B2, “Oligonucleotides for modulating gene expression and uses thereof” (BIOGENERA S.P.A., priority 2012, dated 2020).
# How the values were obtained:
# WERI-Rb1 = assay: Cellular proliferation assay (ATP-Lite), WERI-Rb1 cells; format: cell-based; settings: Table 6
# Experimental: (§1) For the purpose of assessing the gene modulation ability of the oligonucleotides of the present invention, the effect of their administration on cell viability was determined. For this purpose 5×10^3 cells per well were seeded into 96-well cell culture plates (experiments conducted in triplicate) with 100 μl of OPTI-MEM (GIBCO BRL) medium containing 4% FBS and 2 mM of L-glutammine. The PNA oligonucleotides were administered at different concentrations (1 μM-2.5 μM-5 μM-10 μM) in order to observe a dose-effect relationship. The viability of the treated cells was determined at 48, 72, 96 and 168 hours after treatment. Cell viability was assessed by means of an ATP-Lite assay (Luminescence ATP Detection Assay System, PerkinElmer) and is reported as the ratio between the average signal of the treated wells compared to the average value of the wells of untreated control cells. The cells were processed following the instructions provided with the kit. The assays were performed on the same cell lines used to determine the levels of the MYCN gene messenger and listed in the paragraph: Treatments with Oligonucleotides-QT-PCR. The PNAs having SEQ ID NO: 1-12 were also tested on different cell lines which overexpress MYCN (Kelly, SKNBE2c, RH30, […] 1 and H69). The results are shown in Table 6 and confirm the selectivity and specificity of the inhibition effect of the PNAs on the product of protein translation of the MYCN gene.
# Kelly cells = assay: Cellular proliferation assay (ATP-Lite), Kelly cells; format: cell-based, human; settings: for Cell Prolif. (%): Table 1, treated vs untreated control cells; for Kelly % cell prol.: Table 6
# How it was run: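 Kelly cells seeded at 5×10^3/well in OPTI-MEM with 4% FBS and 2 mM L-glutamine, in triplicate. PNA oligonucleotides at 1, 2.5, 5 or 10 μM. Viability by ATP-Lite luminescence at 48, 72, 96 and 168 h, as ratio to untreated controls.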
# SKNBE2c = assay: Cellular proliferation assay (ATP-Lite), SKNBE2c cells; format: cell-based, human; settings: Table 6
# Experimental: as §1
# MYCN gene = assay: QT-PCR, MYCN mRNA in H69 cells; format: cell-based, human; settings: Table 6
# Experimental: For the purpose of assessing the ability of the oligonucleotides of the present invention to modulate the expression of the target genes, their ability to reduce the quantity of messenger RNA was analyzed using the Real-Time PCR technique.
# For this purpose, use was made of 24-well plates, which were seeded with 5.0×10^4 cells with 0.3 ml of OPTI-MEM (GIBCO BRL) medium, 4% FBS and 2 mM L-glutammine (experiments in triplicate) per well.
# The cells were incubated for 24 hours at 37° C., in an atmosphere containing 5% CO2 to permit adherence to the base of the wells.
# For each well, the oligonucleotides were analyzed at the following final concentrations: • the antisense oligonucleotides siRNA and siRNA gapmer (i.e. the oligonucleotides containing one or more monomers of chemically modified nucleic acids at the 3′ or 5′ end, while in the central portion they have monomers of nucleic acids that have not been modified or have been modified at the level of the phosphodiester bond as a phosphorothioate bond) were used at 200 nM; • the antisense oligonucleotides containing phosphorothioate DNA monomers, the RNA antigene oligonucleotides (agRNA) and the oligonucleotides containing DNA monomers and LNA monomers were used at 10 μM; • the morpholino oligonucleotides were used at a concentration of 1 μM, and • the PNA oligonucleotides were administered at a concentration of 1 μM.
# The cells were treated with the oligonucleotides, adding FBS up to 4% 6 hours after administration of the same. After 24 hours the total RNA was extracted from each well and purified using the RNeasy Mini Kit (QIAGEN).
# Assays were performed on 8 cell lines obtained from 5 different human tumours which are correlated with MYCN expression, i.e.: • as a neuroblastoma model use was made of the cell lines Kelly, IMR-32 (where the MYCN gene is amplified and superexpressed) and SKNBE2c and LAN1 (where the MYCN gene is amplified and superexpressed and the p53 gene is mutated); • as a rabdomiosarcoma model use was made of the cell line RH30, where the MYCN gene is amplified and superexpressed; • as a Wilms' tumour model use was made of the cell line WiT49, where the MYCN gene is amplified and superexpressed; • as a retinoblastoma model use was made of the cell line Y79, where the MYCN gene is amplified and superexpressed; and • as a model of small cell lung cancer use was made of the cell line H69 where the MYCN gene is amplified and superexpressed.
# As a control, use was made of the same cell lines as listed above treated with sterile water instead of oligonucleotides. Each RNA sample was quantified (in duplicate) using a NanoDrop ND-1000 spectrophotometer (NanoDrop Technologies). The first strand of cDNA was produced using the cDNA Synthesis Kit for RT-PCR (Roche). For the cDNA synthesis reaction a total of 1 μg of RNA was used. For the real-time PCR, 10 ng of cDNA in a final volume of 20 μl was used with SYBR Green Master Mix 2× (Applied Biosystems) (3 identical experiments were conducted in triplicate). Two housekeeping genes were used as positive controls: GAPDH and beta-actin (ACTB).
# The conditions of the QT-PCR reaction were: 10 min at 95° C., 20 sec at 95° C., and 30 sec at 60° C., for 50 cycles.
# The PNAs having SEQ ID NO: 1-12 were also tested on different cell lines which overexpress MYCN (Kelly, SKNBE2c, RH30, WiT49, WERI-Rb1 1 and H69). The results are shown in Table 6 and confirm the selectivity and specificity of the inhibition effect of the PNAs on the product of protein translation of the MYCN gene.
# The oligonucleotides were tested in vitro (at a concentration of 2.5 μM) to determine their ability to inhibit the transcription of the gene they are directed against by measuring the levels of the gene messenger in cellular models in which the gene of interest is overexpressed. The methods used are the ones described in example 1. […]
Substance,WERI-Rb1 % cell prol. (WERI-Rb1) [%],Cell Prolif. (%) (Kelly cells),Kelly % cell prol. (Kelly cells) [%],SKNBE2c % cell prol. (SKNBE2c) [%],H69 % mRNA (MYCN gene) [%],"Cell Prolif (%) 1 μM 72 h (Kelly cells; PNA 1 μM, 72 h) [%]","Cell Prolif. (%) 5 μM 72 h (Kelly cells; PNA 5 μM, 72 h) [%]","Cell Prolif. (%) 10 μM 72 h (Kelly cells; PNA 10 μM, 72 h) [%]","Cell Prolif (%) 2,5 μM 72 h (Kelly cells; PNA 2,5 μM, 72 h) [%]"
"SEQ ID NO: 11: PNA antigene oligonucleotide GGGAACTGTGTTGGAG directed against MYCN (PNA backbone, chemistry not fully specified)",84,68,64,71,41,,,,
SEQ ID NO: 12: PNA antigene oligonucleotide TGTCTGGACGCGCTGG directed against MYCN (all peptide nucleic acid (PNA)),84,69,65,71,40,84,40,16,60
